From patent publication US8497276B2, “Substituted indolo-piperidine compounds” (ArQule, Inc., priority 2009, dated 2013) come the findings set out here.

One experiment has as its target T1, Tec kinase (Homo sapiens, UniProt P42680).
T1 sequence (P42680 1-631): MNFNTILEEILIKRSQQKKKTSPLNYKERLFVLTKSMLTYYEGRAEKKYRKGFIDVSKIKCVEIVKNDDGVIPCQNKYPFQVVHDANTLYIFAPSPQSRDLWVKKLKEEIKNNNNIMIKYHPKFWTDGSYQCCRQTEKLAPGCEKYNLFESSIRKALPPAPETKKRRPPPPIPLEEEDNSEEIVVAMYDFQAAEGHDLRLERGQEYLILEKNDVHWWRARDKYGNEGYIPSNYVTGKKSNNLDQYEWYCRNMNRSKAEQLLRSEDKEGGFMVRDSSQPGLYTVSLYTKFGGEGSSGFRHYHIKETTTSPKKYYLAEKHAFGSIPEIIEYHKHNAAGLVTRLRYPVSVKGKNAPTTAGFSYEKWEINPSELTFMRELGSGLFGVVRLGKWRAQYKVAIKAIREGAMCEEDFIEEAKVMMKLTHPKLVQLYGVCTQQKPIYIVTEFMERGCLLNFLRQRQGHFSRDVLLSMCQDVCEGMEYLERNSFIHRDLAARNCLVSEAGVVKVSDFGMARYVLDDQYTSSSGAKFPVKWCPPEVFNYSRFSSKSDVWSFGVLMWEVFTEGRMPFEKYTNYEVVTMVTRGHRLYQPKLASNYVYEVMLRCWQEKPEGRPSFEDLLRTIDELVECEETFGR
Nature of the experiment: Tec Kinase Activity Assay. The format is biochemical. The note with it: 75 μM ATP, Pyk-2 substrate; compound concentration not given. The essentials:
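TEC enzyme was preincubated 30 min with compound in buffer containing 75 μM ATP, 10 mM MgCl2, 2 mM DTT and 50 mM Tris-HCl. Pyk-2 substrate was then added for 2 h at room temperature. Phosphorylated product was captured on streptavidin plates and detected by anti-phosphotyrosine ELISA with an alkaline phosphatase/Attophos fluorescent read-out.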

The test system of a further experiment is DLD-1. Nature of the experiment: MTS Assay (cell growth inhibition), DLD-1. It counts as cell-based. The note with it: DLD-1 cells, 72 hours with test compound; concentration not given. The essentials:
(§1)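 First, seed 3000 cells per well in low-serum (1% FBS) DMEM and culture 18 h. Next, add compounds prepared at 300× in DMSO and diluted 1:40 in DMEM; incubate 72 h. Finally, add MTS/PMS for 4 h and measure absorbance at 492 nm.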

In the next experiment the test system is Kato III. Nature of the experiment: MTS Assay (cell growth inhibition), Kato III. It counts as cell-based. The note with it: Kato III cells, 72 hours with test compound; concentration not given. The essentials: as §1
The test system of the next experiment is MDA-MB 231. Nature of the experiment: MTS Assay (cell growth inhibition), MDA-MB 231. The note with it: MDA-MB 231 cells, 72 hours with test compound; concentration not given. It counts as cell-based. The essentials: as §1
Another experiment relates to NCI-H1299. Nature of the experiment: MTS Assay (cell growth inhibition), NCI-H1299. The format is cell-based. The note with it: NCI-H1299 cells, 72 hours with test compound; concentration not given. The procedure, abridged: as §1
A further experiment relates to PACA-2. Nature of the experiment: MTS Assay (cell growth inhibition), PACA-2. The format is cell-based. The note with it: PACA-2 cells, 72 hours with test compound; concentration not given. The procedure, abridged:
as §1

A further experiment concerns PC-3. Nature of the experiment: MTS Assay (cell growth inhibition), PC-3. The format is cell-based. The conditions noted are these: PC-3 cells, 72 hours with test compound; concentration not given. The essentials: as §1

As to `CC(C)c1ccc(C2c3[nH]c4ccccc4c3CCN2c2ncnc3[nH]ncc23)cc1` (stereo not drawn) [Compound 21, 1-(4-isopropylphenyl)-2-(1H-pyrazolo[3,4-d]pyrimidin-4-yl)-2,3,4,9-tetrahydro-1H-beta-carboline], at Tec kinase, the “Biochemical IC50 (% inhibition) Tec” value is reported as “B (B = 50-79% inhibition)”. For the same compound, the “MTS cell kill data (% inhibition) DLD-1” value in the experiment on DLD-1 is “A (A = 80-100% inhibition)”. The “MTS cell kill data (% inhibition) Kato III” value in the experiment with Kato III was “A (A = 80-100% inhibition)”. Moreover, the “MTS cell kill data (% inhibition) MDA-MB 231” value in the experiment on MDA-MB 231 was “A (A = 80-100% inhibition)”. In addition, the “MTS cell kill data (% inhibition) NCI-H1299” value in the experiment with NCI-H1299 was “A (A = 80-100% inhibition)”. In addition, the “MTS cell kill data (% inhibition) PACA-2” value with PACA-2 is listed as “A (A = 80-100% inhibition)”. Also, the “MTS cell kill data (% inhibition) PC-3” value in the experiment with PC-3 is “B (B = 50-79% inhibition)”.

For `COc1ccc(C2c3[nH]c4ccccc4c3CCN2c2ncnc3[nH]cnc23)cc1` (stereo not drawn) [Compound 29, 1-(4-methoxyphenyl)-2-(9H-purin-6-yl)-2,3,4,9-tetrahydro-1H-beta-carboline], the “Biochemical IC50 (% inhibition) Tec” value on Tec kinase was “C (C = <50% inhibition)”. Also, in the experiment on DLD-1, the “MTS cell kill data (% inhibition) DLD-1” value is listed as “B (B = 50-79% inhibition)”. Besides, the “MTS cell kill data (% inhibition) Kato III” value in the experiment on Kato III is given as “B (B = 50-79% inhibition)”. The “MTS cell kill data (% inhibition) MDA-MB 231” value with MDA-MB 231 is given as “C (C = <50% inhibition)”. In the experiment on NCI-H1299, the “MTS cell kill data (% inhibition) NCI-H1299” value is “B (B = 50-79% inhibition)”. The “MTS cell kill data (% inhibition) PACA-2” value in the experiment with PACA-2 was “B (B = 50-79% inhibition)”. The “MTS cell kill data (% inhibition) PC-3” value in the experiment with PC-3 is “C (C = <50% inhibition)”.

For `Nc1nc(N2CCc3c([nH]c4ccccc34)C2CCc2ccccc2)c2nc[nH]c2n1` (stereo not drawn) [Compound 28, 6-[1-(2-phenylethyl)-1,3,4,9-tetrahydro-2H-beta-carbolin-2-yl]-9H-purin-2-amine], on Tec kinase, the “Biochemical IC50 (% inhibition) Tec” value is “C (C = <50% inhibition)”. The “MTS cell kill data (% inhibition) DLD-1” value in the experiment on DLD-1 is recorded as “B (B = 50-79% inhibition)”. Also, the “MTS cell kill data (% inhibition) Kato III” value in the experiment with Kato III was “C (C = <50% inhibition)”. Further, the “MTS cell kill data (% inhibition) MDA-MB 231” value in the experiment with MDA-MB 231 was “C (C = <50% inhibition)”. Also, in the experiment on NCI-H1299, the “MTS cell kill data (% inhibition) NCI-H1299” value is reported as “B (B = 50-79% inhibition)”. Further, in the experiment on PACA-2, the “MTS cell kill data (% inhibition) PACA-2” value is reported as “C (C = <50% inhibition)”. Moreover, the “MTS cell kill data (% inhibition) PC-3” value with PC-3 was “C (C = <50% inhibition)”.

As for `COc1ccc(C2c3[nH]c4ccccc4c3CCN2c2ncnc3[nH]ccc23)cc1OC` (stereo not drawn) [Compound 22, 1-(3,4-dimethoxyphenyl)-2-(7H-pyrrolo[2,3-d]pyrimidin-4-yl)-2,3,4,9-tetrahydro-1H-beta-carboline], at Tec kinase, the “Biochemical IC50 (% inhibition) Tec” value was “C (C = <50% inhibition)”. Besides, the “MTS cell kill data (% inhibition) DLD-1” value in the experiment on DLD-1 is “B (B = 50-79% inhibition)”. In addition, the “MTS cell kill data (% inhibition) Kato III” value with Kato III is given as “B (B = 50-79% inhibition)”. The “MTS cell kill data (% inhibition) MDA-MB 231” value in the experiment with MDA-MB 231 was “C (C = <50% inhibition)”. In addition, in the experiment with NCI-H1299, the “MTS cell kill data (% inhibition) NCI-H1299” value is “B (B = 50-79% inhibition)”. Besides, the “MTS cell kill data (% inhibition) PACA-2” value with PACA-2 is on record as “B (B = 50-79% inhibition)”. The “MTS cell kill data (% inhibition) PC-3” value in the experiment on PC-3 is on record as “C (C = <50% inhibition)”.
